Here are results for one molecule from patent US20240018120A1, “MAGL INHIBITORS” (H. LUNDBECK A/S, priority 2020, published 2024).

Molecules are shown by their SMILES.

Data set [1] relates to rat formalin paw model of inflammatory pain. The experiment in a line: Rat formalin paw model of inflammatory pain. It counts as in vivo. The following applies: 0.6 mg/kg, 3 mg/kg and 10 mg/kg oral, 4 h pre-test; early and/or late phases; vs vehicle. On the procedure:
In the rat formalin paw model formalin is administered into the right […] of a rat in order to induce pain (observed by hind limb licking duration and frequency).
Male Sprague Dawley rats were divided into three cohorts to enable testing in the Laboras™ equipment to be carried out over three days in a balanced design to give treatment groups of 10. On the day of the study, male Sprague Dawley rats were weighed, tail marked and dosed orally with vehicle, test compound (0.1, 0.3, 0.6, 1, 3 or 10 mg/kg) or pregabalin (30 mg/kg) 4 h pre-test using a 5 mL/kg dosing volume. For Example 6 the vehicle used was 0.5% methylcellulose in water and for Example 8 the vehicle used was 20% HP-b-CD. Up to six animals were dosed at a time. After 4 h, rats received an intraplantar injection of 50 μL of a 2.5% v/v formalin solution into the right hind paw. Rats were immediately placed into the Laboras™ cages and data acquisition started. The primary measures recorded by Laboras™ for the formalin paw model are hind limb licking duration and frequency. Locomotion is also reported as maximum speed, average speed when moving or over the whole-time bin and distance travelled. After 40 min, when data acquisition was complete, rats were removed from the cages.
On removal from the test cages, rats were anaesthetised with the gaseous anaesthetic isoflurane (5% v/v isoflurane in oxygen) and blood samples were collected by cardiac puncture. Brains were then removed, rinsed in phosphate buffered saline (PBS), hemi-sected and frozen separately in liquid nitrogen.
Data were analysed with Statistica software (TIBCO, USA version 11.1). All data are expressed as means±standard error of the mean (sem) to one decimal place. […] Time course data were analysed by repeated measures analysis of variance (ANOVA) followed by one-way ANOVAs at each time point and subsequent Dunnett's post hoc tests. […]

The subject of data set [2] is maximal electroshock seizure threshold (MEST) model. The experiment in a line: Maximal electroshock seizure threshold (MEST) model in the rat. The settings on record: 10 mg/kg p.o., 240 min pre-treatment. The data set is classed as in vivo. On the procedure: In the MEST model, a low-intensity electrical current of high frequency and short duration is applied to induce tonic convulsions.
Animals were randomly assigned to vehicle, compound treatment or Lamotrigine dose groups. Animals were dosed at 5 mL/kg according to treatment groups (n=12 or 16/group), with either vehicle (0.5% MC) p.o. for Example 6, vehicle (10% HP-b-CD) for Example 8, test compound at 10 mg/kg p.o. 240 min pre-treatment time, or Lamotrigine p.o. 360 min pre-treatment time. Rats were individually assessed for production of a tonic hind limb extensor seizure following a single corneally delivered electroshock of 0.3 second duration, using an ‘up and down method’ of shock titration (Kimball A W et al., 1957). Thus, the first rat within a treatment group was given a shock at the expected or estimated CC50 current (current producing tonic hind limb extensor seizures in 50% of animals). […] This procedure was continued for all rats within a treatment group. Induction of seizure was measured as an all-or-nothing effect scored as either present (+) or absent (0) for each animal. […]
Significant differences between drug-treated animals and controls were assessed according to Litchfield and Wilcoxon (1949) or One-Way ANOVA followed by Dunnett's multiple comparisons test.

The target of data set [3] is T1, MAGL (Homo sapiens, UniProt Q99685).
T1 sequence (Q99685 1-303): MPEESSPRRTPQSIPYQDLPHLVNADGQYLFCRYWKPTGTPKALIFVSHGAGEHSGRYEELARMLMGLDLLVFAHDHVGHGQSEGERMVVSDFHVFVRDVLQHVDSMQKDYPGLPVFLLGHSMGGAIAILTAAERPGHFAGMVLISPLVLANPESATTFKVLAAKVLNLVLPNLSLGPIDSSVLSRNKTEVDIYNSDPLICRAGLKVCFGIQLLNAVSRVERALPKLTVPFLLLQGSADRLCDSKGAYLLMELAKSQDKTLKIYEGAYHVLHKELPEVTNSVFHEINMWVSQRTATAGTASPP
The experiment in a line: In vitro competitive substrate hydrolysis enzyme activity assay (pNPA), HEK293 cell lysates. It counts as biochemical. More on the design: expressed in transfected cells; host or cells: HEK293. The following applies: HEK293 lysate. An outline of the steps:
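Lysates of HEK293 cells expressing human MAGL (~1.2 μg protein) preincubated 30 min at 25° C with inhibitor in 50 mM HEPES pH 7.0, 200 mM KCl, 1 mM EDTA. pNPA substrate then added (2× stock 2.5 mM), and A405 followed for 20 min at 25° C. Rates normalized to DMSO, and IC50 from 4-parameter fit.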

Data set [4] addresses T1, MAGL. The experiment in a line: In vitro competitive activity-based protein profiling, PC3 human cell membrane proteomes. It counts as biochemical. More on the design: endogenous in cells; host or cells: PC3 human cells (membrane proteome). The following applies: human PC3 membrane proteome. An outline of the steps: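 Competitive ABPP in PC3 membrane proteome (2.0 mg/mL protein): inhibitors preincubated 30 min at 37° C, then JW912-Bodipy probe added for 30 min at room temperature. MAGL band fluorescence after SDS-PAGE normalised to DMSO; IC50 from 4-parameter sigmoidal fit.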

One may read the IC50 as the concentration that gives 50% inhibition. The low end stands for inhibition by little substance, the high end for a need for much substance. Take `O=C(Nc1cccnn1)[C@H]1CC12CCN(C(=O)OC(C(F)(F)F)C(F)(F)F)CC2` [Example 6, 1,1,1,3,3,3-Hexafluoropropan-2-yl (S)-1-(pyridazin-3-ylcarbamoyl)-6-azaspiro[2.5]octane-6-carboxylate]: the “measure of spontaneous pain (hind limb licking frequency)” value in data set [1] is “statistically significant reduction”. Further, the “anticonvulsant activity in the MEST (seizure threshold CC50)” value in data set [2] is reported as “anticonvulsant activity”. Moreover, the IC50 on MAGL [3] came out at 0.00826 µM; on MAGL [4], 0.0046 µM.
